target: MEF2D/HDAC4 protein-protein interactions (Homo sapiens (Human), UniProt Q14814); experiment: Mammalian two-hybrid assay, inhibition of MEF2D and HDAC4 protein interactions (luciferase reporter in HeLa cells); format: cell-based; conditions: HeLa cells co-transfected with GAL4-MEF2D, HDAC4-VP16 and Gal4Luc; overnight treatment; luciferase normalized to Renilla
Source text: Detection of MEF2D and HDAC4 interactions. In this mammalian two-hybrid assay, HDAC4 and MEF2D proteins were used. […] Human epithelial carcinoma cells (HeLa) were co-transfected with the two DNA constructs (GAL4-MEF2D and HDAC4-VP16) and a reporter plasmid (Gal4Luc). […] MEF2D and HDAC4 protein interactions were detected as a result of the GAL4-MEF2D and HDAC4-VP16 protein complex binding a DNA promoter on the reporter plasmid (Gal4Luc) and driving cellular expression of a luciferase gene. The measured luciferase protein signal was proportional to the amount of MEF2D and HDAC4 protein interactions occurring with the cell.
The HDAC4 fragment lacked the catalytic domain so that the deacetylase activity was excluded from the assay.
Detection of inhibition of MEF2D and HDAC4 interactions. Next, the assay was used to test whether the compounds could disrupt the interactions between MEF2D and HDAC4. After co-expressing the GAL4-MEF2D and HDAC4-VP16 DNA constructs and reporter plasmid, the HeLa cells were treated with a test compound (10 μM) overnight. Cells transfected with the positive control GAL4VP16 fusion construct and reporter plasmid were also treated with the test compound (10 μM) overnight. As another control, DMSO was added (but kept below 0.2% V/V) to cells transfected with the positive GAL4VP16 fusion construct or the GAL4-MEF2D and HDAC4-VP16 DNA constructs. A luciferase assay was performed as described above according to the manufacturer's protocol (Promega). The luciferase response was normalized against the Renilla Luciferase as an internal control.
The relative activity and IC50 calculations. […] The relative activity, I, was the ratio of former to later, i.e. X/Y, expressed in percentile. […] The IC50 was the concentration of the compounds when X/Y equals 50.

MEF2D/HDAC4 protein-protein interactions, sequence (Q14814 whole entry, species assumed, the tested form may be a part): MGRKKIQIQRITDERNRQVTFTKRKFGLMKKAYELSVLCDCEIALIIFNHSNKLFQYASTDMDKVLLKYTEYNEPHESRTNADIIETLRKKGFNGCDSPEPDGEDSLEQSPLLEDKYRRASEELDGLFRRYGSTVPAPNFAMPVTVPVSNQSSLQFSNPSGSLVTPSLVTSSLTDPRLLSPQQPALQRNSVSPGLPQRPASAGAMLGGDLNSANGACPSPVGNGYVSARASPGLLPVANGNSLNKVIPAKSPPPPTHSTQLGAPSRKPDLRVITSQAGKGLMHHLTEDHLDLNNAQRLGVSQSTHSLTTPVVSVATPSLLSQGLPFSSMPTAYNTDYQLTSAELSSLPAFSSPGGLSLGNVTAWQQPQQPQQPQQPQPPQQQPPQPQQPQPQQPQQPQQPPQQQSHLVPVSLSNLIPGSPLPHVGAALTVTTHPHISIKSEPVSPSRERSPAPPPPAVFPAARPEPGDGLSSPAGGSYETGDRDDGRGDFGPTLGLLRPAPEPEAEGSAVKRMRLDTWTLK

Row | Compound | IC50 [nM]
1 | Nc1ccccc1NC(=O)/C=C/c1cccc(CNc2cccc(Br)c2)c1 [ST2] | 5940
2 | COc1cccc(NCc2cccc(/C=C/C(=O)Nc3ccccc3N)c2)c1 [ST3] | 4870
3 | CC(C)Oc1cccc(NCc2cccc(/C=C/C(=O)Nc3ccccc3N)c2)c1 [ST5] | 191000
4 | Nc1ccccc1NC(=O)/C=C/c1cccc(CNc2cccc(N3CCCCC3)c2)c1 [ST6] | 2460
5 | Nc1ccccc1NC(=O)/C=C/c1cccc(CNc2cccc(N3CCOCC3)c2)c1 [ST8] | 2400
6 | CCN(CC)c1cccc(NCc2cccc(/C=C/C(=O)Nc3ccccc3N)c2)c1 [ST9] | 3530
7 | Nc1ccccc1NC(=O)/C=C/c1cccc(CNc2cccc(N3CCCC3)c2)c1 [ST10] | 2510
8 | Nc1ccccc1NC(=O)/C=C/c1ccc(F)c(CNc2ccccc2)c1 [ST11] | 18000
9 | COc1cccc(NCc2ccc(F)c(/C=C/C(=O)Nc3ccccc3N)c2)c1 [ST12] | 3360
10 | O=C(/C=C/c1cccc(CNc2ccccc2)c1)NO [ST15] | 920
11 | O=C(/C=C/c1cccc(CNc2cccc(OC3CC3)c2)c1)NO [ST16] | 380
12 | O=C(/C=C/c1cccc(CNc2ccc(F)cc2)c1)NO [ST17] | 990
13 | O=C(/C=C/c1cccc(CNc2cccc(F)c2)c1)NO [ST18] | 1030
14 | COc1cccc(NCc2cccc(/C=C/C(=O)NO)c2)c1 [ST19] | 320
15 | CSc1cccc(NCc2cccc(/C=C/C(=O)NO)c2)c1 [ST20] | 320
16 | CCOc1cccc(NCc2cccc(/C=C/C(=O)NO)c2)c1 [ST21] | 350
17 | CCc1cccc(NCc2cccc(/C=C/C(=O)NO)c2)c1 [ST22] | 540
18 | N#Cc1cccc(NCc2cccc(/C=C/C(=O)NO)c2)c1 [ST23] | 420
19 | O=C(/C=C/c1cccc(CNc2ccc(F)c(F)c2)c1)NO [ST24] | 1020
20 | O=C(/C=C/c1cccc(CNc2ccc(F)cc2F)c1)NO [ST25] | 950
21 | O=C(/C=C/c1cccc(CNc2ccc(Cl)cc2)c1)NO [ST26] | 790
22 | CC(C)Oc1cccc(NCc2cccc(/C=C/C(=O)NO)c2)c1 [ST27] | 350

Row | Compound | IC50 [nM]
23 | O=C(/C=C/c1cccc(CNc2cccc(OC3CCC3)c2)c1)NO [ST28] | 670
24 | O=C(/C=C/c1cccc(CNc2cccc(OC3CCCC3)c2)c1)NO [ST29] | 1180
25 | CN(C)c1ccc(/C=C2C=C(/C=C/C(=O)NO)CCC/2)cc1 [ST30] | > 20000
26 | O=C(/C=C/c1cccc(CNc2cccc(OC3COC3)c2)c1)NO [ST31] | 560
27 | O=C(/C=C/c1cccc(CNc2cccc(N3CCOCC3)c2)c1)NO [ST32] | 250
28 | CN(C)c1cccc(NCc2cccc(/C=C/C(=O)NO)c2)c1 [ST33] | 370
29 | CCCCc1cccc(NCc2cccc(/C=C/C(=O)NO)c2)c1 [ST34] | 2030
30 | CCOc1cccc(NCC2C=C(/C=C/C(=O)NO)CCC2)c1 (stereo not drawn) [ST35] | 4720
31 | COc1ccc(NCC2C=C(/C=C/C(=O)NO)CCC2)cc1 (stereo not drawn) [ST36] | 1880
32 | O=C(/C=C/c1cccc(CNc2cccc(N3CCCC3)c2)c1)NO [ST37] | 590
33 | CCN(C)c1cccc(NCc2cccc(/C=C/C(=O)NO)c2)c1 [ST38] | 260
34 | O=C(/C=C/c1cccc(CNc2cccc(N3CCCCC3)c2)c1)NO [ST39] | 310
35 | O=C(/C=C/c1cccc(CNc2cccc(N3CCNCC3)c2)c1)NO [ST40] | 260
36 | CCN(CC)c1cccc(NCc2cccc(/C=C/C(=O)NO)c2)c1 [ST41] | 1160
37 | CN(C)Cc1ccc(NCc2cccc(/C=C/C(=O)NO)c2)cc1 [ST42] | 70
38 | O=C(/C=C/c1cccc(CNc2cccc(C3COC3)c2)c1)NO [ST43] | 270
39 | COc1cccc(NCc2cc(F)cc(/C=C/C(=O)NO)c2)c1 [ST44] | 380
40 | O=C(/C=C/c1cccc(CNc2cccc(OCC(F)F)c2)c1)NO [ST45] | 560
41 | O=C(/C=C/c1cccc(CNc2cccc(OCC(F)(F)F)c2)c1)NO [ST46] | 670
42 | Nc1ccccc1NC(=O)/C=C/c1cccc(CNc2nccc(-c3cccnc3)n2)c1 [ST47] | 1490
43 | Nc1ccccc1NC(=O)/C=C/c1cccc(Nc2nccc(-c3cccnc3)n2)c1 [ST48] | > 20000
44 | Nc1ccccc1NC(=O)/C=C/c1cccc(CNc2nc3ccccc3s2)c1 [ST50] | 2550

Row | Compound | IC50 [nM]
45 | COc1ccc(-c2csc(NCc3cccc(/C=C/C(=O)Nc4ccccc4N)c3)n2)cc1 [ST51] | > 20000
46 | Nc1ccccc1NC(=O)/C=C/c1cccc(CNc2nc(-c3ccc(F)cc3)cs2)c1 [ST52] | > 20000
47 | Nc1ccccc1NC(=O)/C=C/c1cccc(CNc2cccc3cccnc23)c1 [ST56] | 5220
48 | Nc1ccccc1NC(=O)/C=C/c1cccc(C(=O)Nc2nc(-c3ccncc3)cs2)c1 [ST57] | > 20000
49 | Nc1ccccc1NC(=O)/C=C/c1cccc(C(C(=O)Nc2ccccc2)C(=O)Nc2ccccc2)c1 [ST58] | 3010
50 | Cc1cnc(NCc2cccc(/C=C/C(=O)Nc3ccccc3N)c2)s1 [ST59] | 3130
51 | Cc1nnc(NCc2cccc(/C=C/C(=O)Nc3ccccc3N)c2)s1 [ST60] | 5040
52 | Nc1ccccc1NC(=O)/C=C/c1cccc(CNc2nnc(C(F)(F)F)s2)c1 [ST61] | 8030
53 | Nc1ccccc1NC(=O)/C=C/c1cccc(CNc2nc(C(F)(F)F)cs2)c1 [ST62] | 3040
54 | Cc1nnc(NCc2cccc(/C=C/C(=O)Nc3ccccc3N)c2)o1 [ST65] | 5370
55 | Cc1coc(NCc2cccc(/C=C/C(=O)Nc3ccccc3N)c2)n1 [ST67] | 3060
56 | Nc1ccccc1NC(=O)/C=C/c1cccc(NC(=O)OCc2cccnc2)c1 [ST68] | 2100
57 | O=C(/C=C/c1cccc(C(=O)Nc2nc(-c3ccncc3)cs2)c1)NO [ST69] | 980
58 | O=C(/C=C/c1cccc(CNc2nc(-c3ccncc3)cs2)c1)NO [ST70] | 140
59 | Cc1[nH]c2ccccc2c1CCNc1cccc(/C=C/C(=O)NO)c1 [ST71] | 270
60 | O=C(/C=C/c1cccc(CNc2cccnc2)c1)NO [ST72] | 1550
61 | Cc1nnc(NCc2cccc(/C=C/C(=O)NO)c2)s1 [ST73] | 1150
62 | O=C(/C=C/c1cccc(CNc2nnc(C(F)(F)F)s2)c1)NO [ST74] | 320
63 | O=C(/C=C/c1cccc(CNc2nc(C(F)(F)F)cs2)c1)NO [ST75] | 410
64 | Cc1nnc(NCc2cccc(/C=C/C(=O)NO)c2)o1 [ST76] | > 10000
65 | Cc1coc(NCc2cccc(/C=C/C(=O)NO)c2)n1 [ST77] | 640
66 | Cc1csc(NCc2cccc(/C=C/C(=O)NO)c2)n1 [ST78] | > 20000

Row | Compound | IC50 [nM]
67 | O=C(/C=C/c1cccc(CNc2nc(C(F)(F)F)co2)c1)NO [ST79] | 280
68 | CCOC(=O)NC(CCCCC(=O)Nc1ccccc1N)C(=O)Nc1cccc(Br)c1 (stereo not drawn) [ST80] | 560
69 | CCOC(=O)NC(CCCCC(=O)Nc1ccccc1N)C(=O)Nc1cccc(C(C)(F)F)c1 (stereo not drawn) [ST81] | 850
70 | CCOC(=O)NC(CCCCC(=O)Nc1ccccc1N)C(=O)Nc1cccc(SC)c1 (stereo not drawn) [ST82] | 500
71 | CCOC(=O)NC(CCCCC(=O)Nc1ccccc1N)C(=O)Nc1cccc(SC(F)(F)F)c1 (stereo not drawn) [ST84] | 930
72 | CCOC(=O)NC(CCCCC(=O)Nc1cccc(Br)c1)C(=O)Nc1ccccc1N (stereo not drawn) [ST86] | > 20000
73 | Nc1ccccc1NC(=O)CCCCC(N)C(=O)Nc1cccc(Br)c1 (stereo not drawn) [ST87] | 3060
74 | CCCCNC(CCCCC(=O)Nc1ccccc1N)C(=O)Nc1cccc(Br)c1 (stereo not drawn) [ST88] | 7320
75 | CCCC(=O)NC(CCCCC(=O)Nc1ccccc1N)C(=O)Nc1cccc(Br)c1 (stereo not drawn) [ST90] | 460
76 | CCOC(=O)NC(CCCCC(=O)Nc1ccccc1N)C(=O)Nc1ccccc1 (stereo not drawn) [ST91] | 1460
77 | CCOC(=O)N[C@H](CCCCC(=O)Nc1ccccc1N)C(=O)Nc1cccc(Br)c1 [ST95] | 1040
78 | COC(=O)N[C@H](CCCCC(=O)Nc1ccccc1N)C(=O)Nc1cccc(Br)c1 [ST96] | 1370
79 | CC(C)OC(=O)N[C@@H](CCCCC(=O)Nc1ccccc1N)C(=O)Nc1cccc(Br)c1 [ST97] | 450
80 | Nc1ccccc1NC(=O)CCCC[C@H](NC(=O)CC1CC1)C(=O)Nc1cccc(Br)c1 [ST98] | 320
81 | Nc1ccccc1NC(=O)CCCC[C@H](NC(=O)OCC1CC1)C(=O)Nc1cccc(Br)c1 [ST99] | 590
82 | CCOC(=O)N[C@@H](CCCCC(=O)Nc1ccccc1N)C(=O)Nc1cccc(OCC)c1 [ST100, (S)-ethyl (7-((2-aminophenyl)amino)-1-((3-ethoxyphenyl)amino)-1,7-dioxoheptan-2-yl)carbamate] | 210
83 | CC(C)CC(=O)N[C@@H](CCCCC(=O)Nc1ccccc1N)C(=O)Nc1cccc(Br)c1 [ST101] | 350
84 | COC(=O)N[C@@H](CCCCC(=O)Nc1ccccc1N)C(=O)Nc1cccc(Br)c1 [ST103] | 350
85 | CCN1CCN(C(CCCCC(=O)Nc2ccccc2N)C(=O)Nc2cccc(Br)c2)C1=O (stereo not drawn) [ST105] | 1480
86 | CC(C)(C)OC(=O)N[C@@H](CCCCC(=O)Nc1ccccc1N)C(=O)Nc1cccc(Br)c1 [ST106] | 1110
87 | CCOC(=O)N[C@@H](CCCCC(=O)NO)C(=O)Nc1cccc(Br)c1 [ST107] | 440
